# Tests used:
# [1] = test system: 29002 mRNA; test: TaqMan analysis of 29002 mRNA in stimulated endothelial cells; format: cell-based
# Procedure: (§1) This example describes the TaqMan™ procedure. […] The TaqMan™ probe includes the oligonucleotide with a fluorescent reporter dye covalently linked to the 5′ end of the probe (such as FAM (6-carboxyfluorescein), TET (6-carboxy-4,7,2′,7′-tetrachlorofluorescein), JOE (6-carboxy-4,5-dichloro-2,7-dimethoxyfluorescein), or VIC) and a quencher dye (TAMRA (6-carboxy-N,N,N′,N′-tetramethylrhodamine) at the 3′ end of the probe.
# (§2) RNA was prepared using the trizol method and treated with DNase to remove contaminating genomic DNA. cDNA was synthesized using standard techniques.
# [2] = test system: 17799 mRNA; settings: niacin marmoset models
# Description: (§3) This example describes the TaqMan™ procedure. The Taqman™ procedure is a quantitative, reverse transcription PCR-based approach for detecting mRNA. The RT-PCR reaction exploits the 5′ nuclease activity of AmpliTaq Gold™ DNA Polymerase to cleave a TaqMan™ probe during PCR. Briefly, cDNA was generated from the samples of interest, e.g., heart, kidney, liver, skeletal muscle, and various vessels, and used as the starting material for PCR amplification. In addition to the 5′ and 3′ gene-specific primers, a gene-specific oligonucleotide probe (complementary to the region being amplified) was included in the reaction (i.e., the Taqman™ probe). […]
# (§4) During the PCR reaction, cleavage of the probe separates the reporter dye and the quencher dye, resulting in increased fluorescence of the reporter. Accumulation of PCR products is detected directly by monitoring the increase in fluorescence of the reporter dye. When the probe is intact, the proximity of the reporter dye to the quencher dye results in suppression of the reporter fluorescence. […]
# [3] = test system: 32135 mRNA; settings: niacin models
# Description: as §3, §4
# [4] = test system: 6169 mRNA; test: TaqMan analysis of 6169 mRNA in an African Green Monkey model of atherosclerosis; format: in vivo
# Procedure: as §1, §2
# [5] = test system: 29002 mRNA; test: TaqMan analysis of 29002 mRNA in stimulated macrophages; format: cell-based
# Procedure: as §1, §2
# [6] = test system: 21833 mRNA; test: TaqMan analysis of 21833 in cultured human monocytes and macrophages; format: cell-based; settings: after stimulation
# Procedure: as §1, §2
molecule,measurement,setting,value
"CC[C@H](C)C(=O)O[C@H]1CCC=C2C=C[C@H](C)[C@H](CC[C@@H]3C[C@@H](O)CC(=O)O3)[C@H]21 [mevastatin, reference compound]",29002 mRNA expression,[1],down-regulated
O=C(O)c1cccnc1 [niacin],17799 mRNA expression,[2],repressed
same,32135 mRNA expression,[3],repressed
n-3 polyunsaturated fatty acid,6169 mRNA expression,[4],repressed
"CD40 ligand: CD40 ligand used to stimulate macrophages (protein, UniProt P29965 113-261, looked up) CD40 ligand, soluble form: MQKGDQNPQIAAHVISEASSKTTSVLQWAEKGYYTMSNNLVTLENGKQLTVKRQGLYYIYAQVTFCSNREASSQAPFIASLCLKSPGRFERILLRAANTHSSAKPCGQQSIHLGGVFELQPGASVFVNVTDPSQVSHGTGFTSFGLLKL",29002 mRNA expression,[5],upregulated
same,21833 expression,[6],upregulated
"interferon gamma: interferon gamma used to stimulate monocytes and macrophages (protein, UniProt P01579 24-161, looked up) Interferon gamma: QDPYVKEAENLKKYFNAGHSDVADNGTLFLGILKNWKEESDRKIMQSQIVSFYFKLFKNFKDDQSIQKSVETIKEDMNVKFFNSNKKKRDDFEKLTNYSVTDLNVQRKAIHELIQVMAELSPAAKTGKRKRSQMLFRG",21833 expression,[6],upregulated
